# In US6825185B2, “Substituted aryl compounds as novel cyclooxygenase-2 selective inhibitors, compositions and methods of use” (NitroMed, Inc., priority 2000, dated 2004):
# Columns and labels:
# [1] = target: T1, COX-1 (Homo sapiens, UniProt P23219); experiment: Human COX-1 enzyme activity (COX Inhibitor Screening Assay, prostaglandin EIA); type: biochemical; parameters: purchased Cayman Chemical; conditions: test compound at 100 μM
# Experimental: The human COX-1 and COX-2 enzyme activities and the measurement of the prostaglandin products synthesized were performed using the COX Inhibitor Screening Assay (Cayman Chemical, Ann Arbor, Mich.), which also contained the Prostaglandin Screening EIA Kit, used for prostaglandin quantification). The test compounds were dissolved at 50 times the highest final reaction concentration in DMSO or any other suitable solvent as stock solutions. These stock solutions were then diluted in the same solvent. Eight glass test tubes (13×100 mm) were placed in a 25° C. water bath. To each test tube was added 950 μL of reaction buffer (0.1 M Tris-HCl, pH 8.0, containing 5 mM EDTA, and 2 mM phenol), 10 μL of 100 µM heme solution, and 10 μL (5 units) of either human COX-1 or COX-2 enzyme and the resulting mixture was incubated for 2 minutes. Twenty μL of the solvent was added to one tube (100% initial activity or solvent control) and 20 μL of each dilution of the test compound was added to one tube each. Each tube was vortexed immediately after the addition. The enzyme was incubated with the inhibitor for 20 minutes at 25° C. The enzymatic reaction was then initiated by the addition of 10 μL of freshly prepared 10 mM arachidonic acid (neutralized with KOH), vortexed and then incubated for 2 minutes (or, in some cases as indicated, 30 seconds) at 37° C. The reaction was terminated by the addition of 50 μL of 1 M HCl, vortexed and placed at room temperature. One hundred μL of a saturated stannous chloride solution (50 mg/mL of 0.1 M HCl) was added and the reaction mixture was allowed to stand at room temperature for at least 5 minutes.
# The prostaglandins (PG) produced in the reactions were assayed, after a 2,000-fold dilution, using the Prostaglandin Screening EIA Kit (Cayman Chemical, Ann Arbor, Mich.). The assay contains an antibody with broad specificity for all the prostaglandin families (PGF, PGE, PGD, and thromboxane B-type) synthesized in the COX-1/COX-2 reactions. The synthesized prostaglandin competes with a PG-tagged acetylcholine esterase tracer for binding to the PG antibody. Binding of synthesized PG lowers the colorimetric development of the Ellman's Reagent (computed as %B/B0). The actual amount of synthesized PG was interpolated from a standard curve using known amounts of supplied prostaglandin E2 (PGE2) (PGE2 concentration vs. %B/B0). The data generated were the mean±standard deviation of triplicate wells in the EIA for a single reaction at a given inhibitor concentration. A plot of % of control (i.e., the solvent control without inhibitor) vs. test compound inhibitor concentration for both isoenzymes was used to determine the IC50 's for COX-1 and COX-2 for that test compound, when IC50's were calculated. The % inhibition for COX-1 and COX-2 enzyme activity by the test compounds at the indicated concentrations are given in Table 1.
# [2] = target: T1, COX-1; experiment: COX-1 enzyme activity in human whole blood (A23187 stimulated, thromboxane B2 EIA); type: cell-based; parameters: Human blood (≈50 mL) from male or female donors who had not received any aspirin or NSAIDs for 14 days; endogenous in cells; host or cells: human whole blood from donors; conditions: test compound at 100 μM
# Experimental: (§1) The assay for COX-1 and COX-2 enzyme activity, in the human whole blood was performed as described in Brideau et al., Inflamm Res., 45: 68-74 (1996)). Human blood (≈50 mL) from male or female donors who had not received any aspirin or NSAIDs for 14 days was collected at two local area blood donor centers and placed in polypropylene syringes containing sodium heparin (20 units per mL blood, final concentration). The blood was transported to the laboratory on ice packs and used within 1.5 hours of collection. Upon receipt in the laboratory, the blood was allowed to come to room temperature for 15 minutes prior to distribution in 1 mL aliquots per well of 24 well tissue culture plates. The plates were then placed on a gently rotating platform shaker in a 5% CO2 incubator at 37° C. for 15 minutes. Test compounds were dissolved in DMSO, at 1000 fold the final desired concentration, and further diluted, as indicated, in DMSO. One μL of each dilution of the test compound was added per well, in duplicate wells; wells not receiving test compound (e.g., basal, background or control wells) received 1 μL DMSO.
# (§2) To induce COX-2, lipopolysaccharide (LPS) from E. coli (LPS, serotype 026:B6 or serotype 0127:B8, Sigma Chemical Co., St. Louis, Mo., Catalogue No. L3755 or L3129, respectively) was added at 10 μg/mL (2 μL of 5 mg/mL LPS in DMSO) to appropriate wells 15 minutes after the addition of the test compound. (Basal or background wells not incubated with LPS received 2 μL of DMSO.) For the stimulation of COX-1, the calcium ionophore, A23187 (free acid from Sigma Chemical Co., St. Louis, Mo., Catalogue No. C7522) was added at 25 μM (1 μL of 25 mM stock in DMSO) to separate wells 4.5 hours after the addition of the test compound. (Again, basal, background or control wells not stimulated with A23187 received 1 μL of DMSO.) At 5 hours after the addition of the test compound, all incubations were terminated by placement on ice and the addition of 2 mM EGTA (100 μL of 20 mM EGTA, tetrasodium, in PBS (phosphate buffered saline) without Ca^++ and Mg^++, pH 7.2)). The resulting solutions, were transferred by polyethylene transfer pipettes to 15 mL polypropylene centrifuge tubes and centrifuged at 1200 g for 10 minutes at 4° C. One hundred μL of plasma was removed from each blood sample and added to 1 mL of methanol in new 15 mL polypropylene centrifuge tubes, vortexed, and stored overnight at −20° C. The next day, the samples were centrifuged at 2000 g for 10 minutes at 4° C. and the supernatants transferred to glass tubes and evaporated to dryness. The samples were assayed for thromboxane B2 using EIA kits supplied by Cayman Chemical Co. (Ann Arbor, Mich., Catalogue No. 519031) in duplicate wells after reconstitution with EIA Buffer and appropriate dilution (2000 fold for COX-1 and 500 fold for Cox-2 samples).
# [3] = target: T2, COX-2 (Homo sapiens, UniProt P35354); experiment: COX-2 enzyme activity in human whole blood (LPS induced, thromboxane B2 EIA); type: cell-based; parameters: Human blood (≈50 mL) from male or female donors who had not received any aspirin or NSAIDs for 14 days; endogenous in cells; host or cells: human whole blood from donors, LPS-induced; conditions: test compound at 10 μM
# T2 sequence (P35354 18-604): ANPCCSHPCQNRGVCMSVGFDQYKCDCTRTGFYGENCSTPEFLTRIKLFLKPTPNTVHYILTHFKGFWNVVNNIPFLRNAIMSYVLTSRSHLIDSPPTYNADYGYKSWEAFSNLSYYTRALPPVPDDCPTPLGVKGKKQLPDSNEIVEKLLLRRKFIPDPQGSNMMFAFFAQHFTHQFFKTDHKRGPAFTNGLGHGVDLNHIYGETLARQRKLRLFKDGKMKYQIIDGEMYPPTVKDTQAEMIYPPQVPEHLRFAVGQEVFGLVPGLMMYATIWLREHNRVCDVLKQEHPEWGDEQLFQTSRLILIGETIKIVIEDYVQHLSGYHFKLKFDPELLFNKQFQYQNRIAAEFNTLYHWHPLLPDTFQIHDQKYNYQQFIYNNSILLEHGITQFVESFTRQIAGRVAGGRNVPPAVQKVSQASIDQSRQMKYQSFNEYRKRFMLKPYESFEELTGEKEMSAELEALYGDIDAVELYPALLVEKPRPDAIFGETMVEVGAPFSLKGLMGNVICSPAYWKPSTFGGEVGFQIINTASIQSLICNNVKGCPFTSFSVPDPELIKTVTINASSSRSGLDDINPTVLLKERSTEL
# Experimental: as §1, with “Human” for “The assay for COX-1 and COX-2 enzyme activity, in the human whole blood was performed as described in Brideau et al., Inflamm Res., 45: 68-74 (1996)). Human”
# as §2, with “(Basal or background wells not incubated with LPS received 2 μL of DMSO.) For the stimulation of COX-1, the calcium ionophore, A23187 (free acid from Sigma Chemical Co., St. Louis, Mo., Catalogue No. C7522) was added at 25 μM (1 μL of 25 mM stock in DMSO) to separate wells 4.5 hours after the addition of the test compound.” left out, “dryness.” for “dryness. The samples were assayed for thromboxane B2 using EIA kits supplied by Cayman Chemical Co. (Ann Arbor, Mich., Catalogue No. 519031) in duplicate wells after reconstitution with EIA Buffer and appropriate dilution (2000 fold for COX-1 and 500 fold for Cox-2 samples).”
# T1 sequence (P23219 24-599): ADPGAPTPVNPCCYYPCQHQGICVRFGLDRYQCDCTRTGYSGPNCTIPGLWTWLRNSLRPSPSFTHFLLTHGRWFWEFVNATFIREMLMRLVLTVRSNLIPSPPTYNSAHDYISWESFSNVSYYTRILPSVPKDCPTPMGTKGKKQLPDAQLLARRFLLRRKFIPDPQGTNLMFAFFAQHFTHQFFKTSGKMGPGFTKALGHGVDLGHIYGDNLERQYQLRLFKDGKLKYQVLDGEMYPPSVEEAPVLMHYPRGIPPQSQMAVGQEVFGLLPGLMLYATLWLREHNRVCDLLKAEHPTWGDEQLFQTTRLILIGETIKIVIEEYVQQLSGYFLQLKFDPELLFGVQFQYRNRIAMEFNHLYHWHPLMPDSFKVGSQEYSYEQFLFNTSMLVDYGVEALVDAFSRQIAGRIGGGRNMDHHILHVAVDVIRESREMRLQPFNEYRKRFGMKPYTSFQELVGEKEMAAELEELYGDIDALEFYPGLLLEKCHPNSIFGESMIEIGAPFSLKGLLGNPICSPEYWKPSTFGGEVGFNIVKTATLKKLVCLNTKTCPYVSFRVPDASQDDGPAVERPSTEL
inhibition at 10 µM [3] [%],inhibition at 100 µM [2] [%],Compound,COX-1 Inhibition (% at 100 μM) [1] [%],COX-1 Inhibition (% at 100 μM) [2] [%],COX-2 Inhibition (% at 10 μM) [3] [%]
–,–,"CS(=O)(=O)c1ccc(-c2cc3c(cc2C=C2CCCCC2)OCO3)cc1 [Example 1d, 1-(6-(Cyclohexylidenemethyl)(2-H-benzo(3,4-d) 1,3-dioxolen-5-yl))-4-(methylsulfonyl)benzene]",5,50,–
–,–,"COc1cc(Cc2cc(F)cc(F)c2)c(-c2ccc(S(C)(=O)=O)cc2)cc1OC [Example 17d, 5-(1-(3′,5′-Difluorophenyl)methyl)-1,2-dimethoxy-4-(4-methylsulfonylphenyl)benzene]",–,25,20
–,–,"CS(=O)(=O)c1ccc(-c2cc(O)c(O)cc2Cc2cc(F)cc(F)c2)cc1 [Example 17e, 5-(1-(3′,5′-Difluorophenyl)methyl)-1,2-dihydroxy-4-(4-methylsulfonylphenyl)benzene]",–,35,25
–,–,"CCOC(=O)C1(C(=O)OCC)Oc2cc(Cc3cc(F)cc(F)c3)c(-c3ccc(S(C)(=O)=O)cc3)cc2O1 [Example 17f, 1,2-(Bis(ethoxycarbonyl))methylenedioxy-5-(1-(3′,5′-difluorophenyl)methyl)--4-(4-methylsulfonylphenyl)benzene]",–,10,25
–,–,"CS(=O)(=O)c1ccc(-c2cc(O)c(O)cc2C(=O)c2cc(F)cc(F)c2)cc1 [Example 17h, 4-(1-(3′,5′-Difluorophenyl)-1-oxomethyl)-1,2-hydroxy-5-(4-methylsulfonylphenyl)benzene]",–,65,55
–,–,"CS(=O)(=O)c1ccc(-c2cc3c(cc2Cc2cc(F)cc(F)c2)OC(C(=O)NCCO)CO3)cc1 (centres unmarked) [Example 18b, (7-((3,5-Difluorophenyl)methyl)-6-(4-(methylsulfonyl)phenyl)(2H, 3H-benzo(e)1,4-dioxin-2-yl))-N-(2-hydroxyethyl)carboxamido]",–,50,25
40,90,"CS(=O)(=O)c1ccc(-c2cc3c(cc2Cc2cc(F)cc(F)c2)OCC(C(=O)NCCO)O3)cc1 (centres unmarked) [Example 18c, (6-((3,5-Difluorophenyl)methyl)-7-(4-(methylsulfonyl)phenyl)(2H, 3H-benzo(e)1,4-dioxin-2-yl))-N-(2-hydroxyethyl)carboxamide]",–,–,–
–,–,"CS(=O)(=O)c1ccc(-c2cc3c(cc2Cc2cc(F)cc(F)c2)OC(C(=O)NCCO[N+](=O)[O-])CO3)cc1 (centres unmarked) [Example 18d, (7-((3,5-Difluorophenyl)methyl)-6-(4-(methylsulfonyl)phenyl)(2H, 3H-benzo(e)1,4-dioxin-2-yl))-N-(2-(nitrooxy)ethyl)carboxamido]",–,60,40
–,–,"O=[N+]([O-])OCc1ccc(-c2cc3c(cc2Cc2cc(F)cc(F)c2)OCO3)cc1 [Example 23d, ((4-(6-((3,5-Difluorophenyl)methyl)(2H-benzo(3,4-d)1,3-dioxolan-5-yl))phenyl)methyl)nitrooxy]",–,65,30
–,–,"Ethyl 7-((3,5-difluorophenyl)methyl)-6-(4-(methylsulfonyl)phenyl)-2H, 3H-benzo(e)1,4-dioxin-2-carboxylate and ethyl 6-((3, 5-difluorophenyl)methyl)-7-(4-(methylsulfonyl)phenyl)-2H, 3H-benzo(e)1,4-dioxin-2-carboxylate [Example 18a]",–,90,65
